The values that follow come from DBAASP.

Each structure is given as a SMILES string. Converted amounts (≈) assume the structure as drawn. Bounds are passed on as bounds.

Among the test systems are Escherichia coli J2210; Escherichia coli JW0013; Escherichia coli BW25113; Escherichia coli MC1041; Escherichia coli JJ2489; Pseudomonas aeruginosa; Klebsiella pneumoniae; Escherichia coli UB1005; Acinetobacter baumannii; Escherichia coli K88; Escherichia coli K99; Escherichia coli; Bacillus subtilis 168; Candida albicans; Staphylococcus aureus.
What all share (test): ≥ marks a high value that may be exact or a test limit, other limits are often not marked, values filed in µg/mL are converted to µM
Experiment [1] relates to Salmonella typhimurium SL1344.
Experiment [2] has as its system Salmonella enterica subsp. enterica serovar Enteritidis MH91989.
Experiment [3] concerns Escherichia coli JW0368 ΔsbmA.
Experiment [4] concerns Escherichia coli JW2778 ΔygdD.
For experiment [5], the system named is Salmonella enterica subsp. enterica serovar Pullorum C79-13.
For experiment [6], the system named is Salmonella enterica subsp. enterica serovar Typhimurium ATCC 14028.
The test system of experiment [7] is Salmonella enterica subsp. enterica serovar Typhimurium C77-31.
Experiment [8] has as its system Escherichia coli ATCC 25922.
The subject of experiment [9] is Pseudomonas aeruginosa ATCC 27853.
In experiment [10] the test system is Pseudomonas aeruginosa CICC 21630.
In experiment [11] the test system is Pseudomonas aeruginosa CICC 21625.
Experiment [12] concerns Pseudomonas aeruginosa PAO1.
The subject of experiment [13] is Staphylococcus aureus USA 400.
Experiment [14] has as its system Staphylococcus aureus USA 200.
The subject of experiment [15] is Candida glabrata ATCC 2001.
Experiment [16] deals with Klebsiella pneumoniae ATCC 13883.
Experiment [17] concerns Staphylococcus aureus MU50.
In experiment [18] the test system is Staphylococcus aureus Newman.
The subject of experiment [19] is Candida albicans ATCC 10231.
For experiment [20], the system named is Candida tropicalis ATCC 13803.
Experiment [21] deals with Staphylococcus epidermidis 1457.
Experiment [22] relates to Staphylococcus aureus UAMS-1.
Experiment [23] relates to Staphylococcus aureus ATCC 29213.
In experiment [24] the test system is Staphylococcus pseudintermedius.
For experiment [25], the system named is Candida albicans ATCC 90029.
Experiment [26] has as its system Mycobacterium tuberculosis WXY.
Experiment [27] has as its system Mycobacterium tuberculosis CAS3.
For experiment [28], the system named is Mycobacterium tuberculosis H37Rv.

The MIC is the smallest concentration in the dilution series that meets the test's criterion for growth inhibition. In the case of `CC(C)C[C@H](NC(=O)[C@H](CCCN=C(N)N)NC(=O)[C@@H]1CCCN1C(=O)[C@H](CCCN=C(N)N)NC(=O)[C@@H]1CCCN1C(=O)[C@@H]1CCCN1C(=O)[C@H](CCCN=C(N)N)NC(=O)[C@@H]1CCCN1C(=O)[C@H](CCC(N)=O)NC(=O)[C@@H]1CCCN1C(=O)[C@H](CCCN=C(N)N)NC(=O)[C@H](Cc1ccc(O)cc1)NC(=O)[C@@H](NC(=O)[C@@H]1CCCN1C(=O)[C@H](CCCN=C(N)N)NC(=O)[C@H](CC(N)=O)NC(=O)[C@H](CC(N)=O)NC(=O)CN)C(C)C)C(=O)O` [GNNRPVYRPQPRPPRPRL], the MIC turned out to be 0.126 µM (≈ 0.273 µg/mL) in experiment [1]; 0.126 µM (≈ 0.273 µg/mL) in the experiment on Escherichia coli J2210; 0.067 µM (≈ 0.145 µg/mL) in experiment [2]; 0.048 µM (≈ 0.104 µg/mL) against Escherichia coli JW0013; 0.096 µM (≈ 0.208 µg/mL) in experiment [3]; 0.062 µM (≈ 0.135 µg/mL) with Escherichia coli BW25113. In addition, the results for the MIC (in experiment [4]; against Escherichia coli MC1041; with Escherichia coli JJ2489) were 0.126 µM (≈ 0.273 µg/mL), 0.096 µM (≈ 0.208 µg/mL) and 0.126 µM (≈ 0.273 µg/mL), respectively.

As to `CC(C)[C@H](N)C(=O)N[C@@H](CCCCN)C(=O)N1CCC[C@H]1C(=O)N[C@H](C(=O)N[C@H](C(=O)N[C@@H](CCCCN)C(=O)N1CCC[C@H]1C(=O)N[C@H](C(=O)N[C@H](C(=O)N[C@@H](CCCCN)C(=O)N1CCC[C@H]1C(=O)N[C@H](C(=O)N[C@H](C(=O)N[C@@H](CCCCN)C(=O)N1CCC[C@H]1C(=O)N[C@H](C(=O)N[C@H](C(=O)N[C@@H](CCCCN)C(=O)N1CCC[C@H]1C(=O)N[C@H](C(=O)N[C@H](C(=O)N[C@@H](CCCCN)C(=O)N1CCC[C@H]1C(=O)N[C@H](C(=O)N[C@H](C(=O)N[C@@H](CCCCN)C(=O)N1CCC[C@H]1C(=O)N[C@H](C(N)=O)C(C)C)C(C)C)C(C)C)C(C)C)C(C)C)C(C)C)C(C)C)C(C)C)C(C)C)C(C)C)C(C)C)C(C)C)C(C)C` [VKPVVKPVVKPVVKPVVKPVVKPVVKPV], the MIC against Pseudomonas aeruginosa is > 64 µM; in the experiment with Klebsiella pneumoniae, > 64 µM; in the experiment with Escherichia coli UB1005, ≥ 64 µM; in experiment [5] it was ≥ 64 µM; with Acinetobacter baumannii, ≥ 64 µM; in [6], > 64 µM. For the same compound, the MIC was ≥ 64 µM in experiment [7]; > 64 µM in [8]; > 64 µM in experiment [9]; ≥ 64 µM in experiment [10]; ≥ 64 µM in experiment [11]; ≥ 64 µM against Escherichia coli K88. Further, the MIC was ≥ 64 µM against Escherichia coli K99, > 64 µM in experiment [12] and > 64 µM against Escherichia coli.

For `CC[C@H](C)[C@H](NC(=O)[C@H](CCCCN)NC(=O)CNC(=O)[C@H](CC(C)C)NC(=O)[C@@H](NC(=O)[C@H](CO)NC(=O)[C@H](CCCCN)NC(=O)[C@H](CC(C)C)NC(=O)[C@H](Cc1ccccc1)NC(=O)[C@@H]1CCCN1C(=O)[C@H](CC(C)C)NC(=O)[C@@H](N)Cc1ccccc1)[C@@H](C)CC)C(=O)N[C@@H](CC(C)C)C(N)=O` [FLPFLKSILGKIL], the MIC in experiment [13] was 1.56 µM (≈ 2.32 µg/mL); in experiment [14], 3.1 µM (≈ 4.61 µg/mL); in [15], 12.5 µM (≈ 18.6 µg/mL); in [16], ≥ 50 µM; in [17] it was 3.1 µM (≈ 4.61 µg/mL); in [18], 1.6 µM (≈ 2.38 µg/mL). Besides, the MIC in experiment [8] was > 50 µM; in experiment [19] it was 12.5 µM (≈ 18.6 µg/mL); in the experiment with Bacillus subtilis 168, 17.7 µM (≈ 26.3 µg/mL); in experiment [20], 1.6 µM (≈ 2.38 µg/mL); in experiment [21], 1.6 µM (≈ 2.38 µg/mL); in experiment [22], 25 µM (≈ 37.2 µg/mL). In addition, the MIC in [12] was > 50 µM.

`CC[C@H](C)[C@H](NC(=O)[C@@H]1CCCN1C(C)=O)C(=O)N[C@@H](Cc1cnc[nH]1)C(=O)N[C@@H](CCCN=C(N)N)C(=O)N[C@@H](CCCN=C(N)N)C(=O)N[C@H](C(=O)N1CCC[C@H]1C(=O)N1CCC[C@H]1C(=O)N[C@@H](CCCN=C(N)N)C(=O)N[C@@H](Cc1c[nH]c2ccccc12)C(=O)N1CCC[C@H]1C(=O)N[C@@H](CCCN=C(N)N)C(=O)N[C@@H](CC(C)C)C(=O)N[C@@H](CCCCN)C(=O)N[C@@H](CCCN=C(N)N)C(=O)N[C@@H](CCCN=C(N)N)C(=O)N[C@@H](Cc1c[nH]c2ccccc12)C(N)=O)[C@@H](C)CC` [PIHRRIPPRWPRLKRRW]: the MIC is 55.2 µM (≈ 130 µg/mL) against Pseudomonas aeruginosa, 27.6 µM (≈ 65.1 µg/mL) in [23], 27.6 µM (≈ 65.1 µg/mL) in experiment [24] and 27.6 µM (≈ 65.1 µg/mL) in experiment [9].

In the case of `CC(C)C[C@H](NC(=O)[C@H](Cc1cnc[nH]1)NC(=O)[C@H](CO)NC(=O)[C@H](C)NC(=O)[C@H](CC(C)C)NC(=O)[C@@H](NC(=O)[C@@H](NC(=O)[C@H](CC(C)C)NC(=O)[C@H](CC(C)C)NC(=O)[C@H](CO)NC(=O)[C@H](Cc1cnc[nH]1)NC(=O)[C@H](CO)NC(=O)[C@H](CC(C)C)NC(=O)[C@H](CC(C)C)NC(=O)[C@H](CCCCN)NC(=O)[C@H](Cc1ccccc1)NC(=O)[C@H](CCCN=C(N)N)NC(=O)[C@@H](N)CCCN=C(N)N)C(C)C)[C@@H](C)O)C(=O)O` [RRFKLLSHSLLVTLASHL], the MIC against Pseudomonas aeruginosa is 2.99 µM (≈ 6.25 µg/mL); against Candida albicans, 2.99 µM (≈ 6.25 µg/mL); in experiment [23], 2.99 µM (≈ 6.25 µg/mL); in experiment [8], 1.49 µM (≈ 3.12 µg/mL); in experiment [25] it was 5.98 µM (≈ 12.5 µg/mL); against Staphylococcus aureus, 1.49 µM (≈ 3.12 µg/mL). The compound also showed an MIC in the experiment with Escherichia coli of 1.49 µM (≈ 3.12 µg/mL).

On to `CC(C)C[C@H](NC(=O)[C@H](C)NC(=O)[C@H](C)NC(=O)[C@H](CCCN=C(N)N)NC(=O)[C@H](CO)NC(=O)[C@H](CC(C)C)NC(=O)[C@H](CCCCN)NC(=O)[C@H](CCCCN)NC(=O)[C@H](CCCCN)NC(=O)[C@H](C)N)C(=O)N[C@@H](CCCN=C(N)N)C(=O)N[C@@H](C)C(=O)N[C@@H](C)C(=O)N[C@H](C(=O)N[C@@H](CCCCN)C(=O)O)C(C)C` [AKKKLSRAALRAAVK], for which the MIC in experiment [26], in experiment [27] and in [28] was ≥ 93.1 µM throughout.
